# Assay results taken from patent publication US20260138961A1, “MODULATORS OF MITOCHONDRIAL DNA REPLICATION” (Pretzel Therapeutics, Inc., priority 2022, published 2026).
# Target: T1, POLγA:Y955C (Homo sapiens, UniProt P54098, Y955C)
# T1 sequence (P54098 1-1239 Y955C): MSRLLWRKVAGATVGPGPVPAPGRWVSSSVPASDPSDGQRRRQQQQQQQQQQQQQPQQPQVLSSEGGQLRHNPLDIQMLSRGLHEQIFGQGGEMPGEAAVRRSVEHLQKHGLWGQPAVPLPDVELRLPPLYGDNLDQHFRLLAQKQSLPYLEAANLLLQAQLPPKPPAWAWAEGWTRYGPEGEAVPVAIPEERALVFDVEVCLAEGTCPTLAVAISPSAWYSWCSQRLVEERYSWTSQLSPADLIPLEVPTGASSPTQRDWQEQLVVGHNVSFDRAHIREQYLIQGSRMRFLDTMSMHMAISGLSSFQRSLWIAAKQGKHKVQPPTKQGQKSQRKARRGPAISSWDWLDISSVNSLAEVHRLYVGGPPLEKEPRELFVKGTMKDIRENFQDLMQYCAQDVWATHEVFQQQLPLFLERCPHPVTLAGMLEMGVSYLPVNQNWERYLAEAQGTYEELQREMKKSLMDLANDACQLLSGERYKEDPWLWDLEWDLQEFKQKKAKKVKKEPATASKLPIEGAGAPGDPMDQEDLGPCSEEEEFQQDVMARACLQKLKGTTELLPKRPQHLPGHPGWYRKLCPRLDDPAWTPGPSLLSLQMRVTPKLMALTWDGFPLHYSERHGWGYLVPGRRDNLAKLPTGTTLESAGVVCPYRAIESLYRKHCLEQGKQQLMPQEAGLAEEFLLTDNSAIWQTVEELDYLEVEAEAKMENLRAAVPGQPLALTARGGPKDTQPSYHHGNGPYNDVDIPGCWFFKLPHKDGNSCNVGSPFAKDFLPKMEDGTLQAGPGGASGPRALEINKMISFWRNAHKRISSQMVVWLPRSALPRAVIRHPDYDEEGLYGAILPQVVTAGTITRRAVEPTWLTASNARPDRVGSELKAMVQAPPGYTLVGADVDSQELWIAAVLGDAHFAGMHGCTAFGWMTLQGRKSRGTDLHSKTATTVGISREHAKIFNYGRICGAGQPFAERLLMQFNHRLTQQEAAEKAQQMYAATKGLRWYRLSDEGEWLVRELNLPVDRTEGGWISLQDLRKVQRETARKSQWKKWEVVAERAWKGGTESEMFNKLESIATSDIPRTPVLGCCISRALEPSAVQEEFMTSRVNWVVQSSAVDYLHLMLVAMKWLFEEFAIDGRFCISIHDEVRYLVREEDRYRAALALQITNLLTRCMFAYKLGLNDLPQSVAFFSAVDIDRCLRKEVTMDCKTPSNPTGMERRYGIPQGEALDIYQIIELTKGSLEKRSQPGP
# T1 sequence (Q9UHN1 1-485 partner): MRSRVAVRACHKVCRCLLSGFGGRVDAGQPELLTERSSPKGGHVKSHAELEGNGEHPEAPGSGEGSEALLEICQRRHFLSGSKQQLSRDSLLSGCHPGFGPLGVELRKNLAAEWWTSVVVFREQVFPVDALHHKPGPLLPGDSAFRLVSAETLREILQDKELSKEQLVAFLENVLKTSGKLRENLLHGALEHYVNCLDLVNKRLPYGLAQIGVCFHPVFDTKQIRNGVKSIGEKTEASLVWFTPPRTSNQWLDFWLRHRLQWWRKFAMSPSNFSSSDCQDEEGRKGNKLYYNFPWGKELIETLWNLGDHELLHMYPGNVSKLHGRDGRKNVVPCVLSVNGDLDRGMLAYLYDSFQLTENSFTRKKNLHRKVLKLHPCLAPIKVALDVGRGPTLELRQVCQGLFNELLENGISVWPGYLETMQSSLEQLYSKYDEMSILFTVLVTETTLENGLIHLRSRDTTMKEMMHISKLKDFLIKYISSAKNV
# Assay: DNA polymerization assay, POLγA:Y955C mutant
# Type: biochemical
# Settings: stimulation of polymerase activity, primed M13mp18 ssDNA, 37° C. 2 hours
# Experimental: DNA Polymerization Assay to Monitor Effects on Human Wildtype POLγ and Four Disease-Causing Mutant Variants of Human POLγ.
# The ability of small molecules to stimulate the polymerase activity of POLγ was analyzed in a quantitative fluorescence SYBR Green I assay with fluorescence intensity (FI) readout.
# In the presence of dNTPs, wild type human POLγ and mutant derivatives thereof were incubated with single-stranded, circular M13mp18 ssDNA hybridized to a short DNA oligonucleotide that functions as a primer for initiation of DNA synthesis. POLγ and mutant derivatives thereof will extend the primer and use the M13mp18 molecule as a template to synthesize long stretches of double-stranded DNA. SYBR Green I, which is a double-stranded DNA-binding dye, was used to quantify formation of double-stranded DNA in the reaction. When bound to double-stranded DNA, SYBR Green I fluorescence increases by up to 100-fold.
# The assay was performed in the 384-well plate format. Upon addition of compounds, changes in double-stranded DNA synthesis activity can be monitored by following effects on fluorescent intensity.
# The reactions also contained the accessory POLγB subunit, and the human mitochondrial single-stranded DNA binding protein (mtSSB).
# The DNA template mixture used in the assay contained 0.5 nM primed M13 mp18 ssDNA, 400 nM mtSSB, 0.1 mM Tris-HCl (pH 8.0), 0.1 mM dNTP, 10 mM MgCl2, 0.1 mg/mL BSA, 1 mM TCEP solution, and 0.02% Triton X-100. The DNA template mixture for the wild type protein contained either 100 μM dNTP, 1 μM dNTP, or 0.1 μM dNTP, designated in Table 2 as 100 μM, 1 μM, and 0.1 μM, respectfully.
# Microplates with compounds (0.1 μL in each well) to be tested in the assay were prepared from 10 mM compound stocks in 100% DMSO, and equal amounts of DMSO without any compound were added to positive and negative control wells.
# The protein mixture was dispensed (5 μL into each well) into compound plates and incubated at 37° C. for 15 minutes. After incubation, 5 μL of the DNA template mixture was dispensed into each well. The plates were then incubated at 37° C. for 2 hours.
# During incubation, a combined stop buffer and detection reagent solution was prepared. The buffer contained 25 mM EDTA (pH 8.0), 0.02% Triton X-100, and SYBR Green I [Invitrogen] diluted 10,000× (for fluorescent readout). EDTA will stop the enzymatic reaction by chelating magnesium ions.
row,AC50,Compound
1,0.4 µM,Cc1ccc(C)c(S(=O)(=O)Nc2cccc(-c3nccs3)c2)c1 [Example 60]
2,> 100 µM,"Cc1cc(S(=O)(=O)Nc2cccc(-c3cc(C4CC4)[nH]n3)c2)c(C)cc1Cl [Example 64, 4-chloro-N-(3-(5-cyclopropyl-1H-pyrazol-3-yl)phenyl)-2,5-dimethylbenzenesulfonamide]"
3,2 µM,"Cc1cc(S(=O)(=O)Nc2cccc(-c3cc[nH]n3)c2)c(C)cc1Cl [Example 68, N-(3-(1H-pyrazol-3-yl)phenyl)-4-chloro-2,5-dimethylbenzenesulfonamide]"
4,2 µM,"Cc1cc2cc(NS(=O)(=O)c3cc(C)c(Cl)cc3C)ccc2[nH]1 [Example 184, 4-chloro-2,5-dimethyl-N-(2-methyl-1H-indol-5-yl)benzenesulfonamide]"
5,0.3 µM,"Cc1csc(-c2cccc(NS(=O)(=O)c3cc(C)c(Cl)cc3C)c2)n1 [Example 20, 4-chloro-2,5-dimethyl-N-(3-(4-methylthiazol-2-yl)phenyl)benzenesulfonamide]"
6,7 µM,"Cc1nc2ccc(NS(=O)(=O)c3cc(C)c(Cl)cc3C)cc2o1 [Example 70, 4-chloro-2,5-dimethyl-N-(2-methylbenzo[d]oxazol-6-yl)benzenesulfonamide]"
7,2 µM,"Cc1cc(-c2cccc(NS(=O)(=O)c3cc(C)c(Cl)cc3C)c2)n[nH]1 [Example 66, 4-chloro-2,5-dimethyl-N-(3-(5-methyl-1H-pyrazol-3-yl)phenyl)benzenesulfonamide]"
8,2 µM,"CC[C@@H]1CCCN1C(=O)c1cccc(NS(=O)(=O)c2cc(C)c(Cl)cc2C)c1 [Example 65, (R)-4-chloro-N-(3-(2-ethylpyrrolidine-1-carbonyl)phenyl)-2,5-dimethylbenzenesulfonamide]"
9,0.4 µM,"Cc1cc(S(=O)(=O)Nc2ccc3ccn(C(C)C)c3c2)c(C)cc1Cl [Example 69, 4-chloro-N-(1-isopropyl-1H-indol-6-yl)-2,5-dimethylbenzenesulfonamide]"
10,1 µM,"Cc1cnc(-c2cccc(NS(=O)(=O)c3cc(C)c(Cl)cc3C)c2)s1 [Example 21, 4-chloro-2,5-dimethyl-N-(3-(5-methylthiazol-2-yl)phenyl)benzenesulfonamide]"
